Source: US6362369B1, “Phthalic acid diamide derivatives fluorine-containing aniline compounds as starting material, agricultural and horticultural insecticides, and a method for application of the insecticides” (Nihon Nohyaku Co., Ltd., priority 1997, dated 2002)

How the values were obtained:
Type in all cases: in vivo
[1] = tested on: common cutworm (Spodoptera Litura); experiment: Insecticidal effect on common cutworm (Test Example 2); conditions: 500 ppm, cabbage leaf dip, second-instar larvae, eight days after inoculation, 25° C.
Summary of the method: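 Mortality was scored 8 days post-inoculation, using three groups of 10 second-instar larvae kept at 25 °C in closed 9 cm dishes on air-dried treated material. The insecticidal effect was graded from calculated mortality by a set criterion.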

[2] = tested on: rice leafroller (Cnaphalocrocis medinalis); experiment: Insecticidal effect on rice leafroller (Test Example 3); conditions: 500 ppm, rice lamina dip, third-instar larvae, four days after inoculation, 25° C., humidity 70%
Summary of the method: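 Insecticidal effect is judged by a predefined criterion from dead/alive counts four days after infesting air-dried lamina with third-instar larvae, kept on moistened filter paper at 25° C, 70% humidity.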

[3] = tested on: diamondback moth (Plutella xylostella); experiment: Insecticidal effect on diamondback moth (Test Example 1); conditions: mortality judged according to the criterion shown in Test Example 1
Summary of the method: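 Triplicate groups of 10 insects were scored: six days after immersion of oviposited Chinese cabbage seedlings and holding at 25 °C post air-drying, hatched larvae were counted. Mortality derived from these counts and insecticidal effect judged by a set criterion.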

Row | Compound | Insecticidal effect on common cutworm (Test Example 2), judged grade [1] | Insecticidal effect on rice leafroller (Test Example 3), judged grade [2] | Insecticidal effect on diamondback moth (Test Example 1), judged grade [3]
1 | CCc1cccc(C(=O)NC(C)C)c1C(=O)Nc1ccc(Cl)cc1C [compound 753] | A (100) | D (79-50) | A (100)
2 | COc1cccc(C(=O)Nc2ccc(OC(F)(F)F)cc2)c1C(=O)NC(C)C [compound 767] | C (89-80) | A (100) | A (100)
3 | COc1cccc(C(=O)Nc2ccc(Br)cc2C)c1C(=O)NC(C)C [compound 768] | B (99-90) | A (100) | A (100)
4 | COc1cccc(C(=O)NC(C)C)c1C(=O)Nc1cc(Cl)ccc1C [compound 770] | A (100) | A (100) | A (100)
5 | CSc1cccc(C(=O)Nc2cccc(Cl)c2C)c1C(=O)NC(C)C [compound 780] | A (100) | A (100) | A (100)
6 | CSc1cccc(C(=O)Nc2ccc(Cl)cc2C)c1C(=O)NC(C)C [compound 781] | A (100) | A (100) | A (100)
7 | CSc1cccc(C(=O)Nc2ccc(OC(F)F)cc2C)c1C(=O)NC(C)C [compound 783] | A (100) | A (100) | A (100)
8 | Cc1cc(OC(F)F)ccc1NC(=O)c1cccc(S(C)(=O)=O)c1C(=O)NC(C)C [compound 795] | B (99-90) | A (100) | A (100)
9 | C#Cc1cccc(C(=O)NC(C)C)c1C(=O)Nc1ccc(Cl)cc1C [compound 801] | A (100) | D (79-50) | A (100)
10 | Cc1cc(OC(F)F)ccc1NC(=O)c1ccc2ccccc2c1C(=O)NC(C)C [compound 819] | B (99-90) | A (100) | A (100)
11 | CCC(C)NC(=O)c1c(C(=O)Nc2cc(Cl)ccc2C)cccc1[N+](=O)[O-] (stereo not drawn) [compound 838] | C (89-80) | A (100) | A (100)
12 | Cc1ccc(Cl)cc1NC(=O)c1cccc([N+](=O)[O-])c1C(=O)NC(C)(C)C [compound 842] | A (100) | D (79-50) | A (100)
13 | Cc1cc(OC(F)F)ccc1NC(=O)c1cccc(Cl)c1C(=O)NC1CC1 [compound 849] | B (99-90) | A (100) | A (100)
14 | Cc1ccc(Cl)cc1NC(=O)c1cccc([N+](=O)[O-])c1C(=O)NC1CC1 [compound 851] | D (79-50) | A (100) | A (100)
15 | Cc1ccc(F)cc1NC(=O)c1cccc([N+](=O)[O-])c1C(=O)NCCF [compound 862] | D (79-50) | D (79-50) | A (100)
16 | COCC(C)NC(=O)c1c(C(=O)Nc2ccc(OC(F)F)cc2C)cccc1[N+](=O)[O-] (stereo not drawn) [compound 874] | C (89-80) | A (100) | A (100)
17 | CC(C)NC(=O)c1c(C(=O)Nc2ccc(C(F)(F)C(F)(F)F)cc2)cccc1[N+](=O)[O-] [compound 890] | A (100) | A (100) | A (100)
18 | CC(C)NC(=O)c1c(F)cccc1C(=O)Nc1ccc(C(F)(F)C(F)(F)F)cc1 [compound 891] | A (100) | A (100) | A (100)

Row | Compound | Insecticidal effect on common cutworm (Test Example 2), judged grade [1] | Insecticidal effect on rice leafroller (Test Example 3), judged grade [2] | Insecticidal effect on diamondback moth (Test Example 1), judged grade [3]
19 | CC(C)NC(=O)c1c(Cl)cccc1C(=O)Nc1ccc(C(F)(F)C(F)(F)F)cc1 [compound 893] | A (100) | A (100) | A (100)
20 | CC(C)NC(=O)c1cccc(Cl)c1C(=O)Nc1ccc(C(F)(F)C(F)(F)F)cc1 [compound 894] | A (100) | A (100) | A (100)
21 | CC(C)NC(=O)c1c(I)cccc1C(=O)Nc1ccc(C(F)(F)C(F)(F)F)cc1 [compound 895] | A (100) | A (100) | A (100)
22 | CC(C)NC(=O)c1c(F)cccc1C(=O)Nc1ccc(Oc2ccc(C(F)(F)F)cc2Cl)cc1F [compound 901] | D (79-50) | A (100) | A (100)
23 | CC(C)NC(=O)c1c(Cl)cccc1C(=O)Nc1ccc(Oc2ccc(C(F)(F)F)cc2Cl)cc1F [compound 903] | A (100) | A (100) | A (100)
24 | Cc1cc(SC(F)(F)C(F)(F)F)ccc1NC(=O)c1cccc(F)c1C(=O)NC(C)C [compound 905] | A (100) | A (100) | A (100)
25 | Cc1cc(SC(F)(F)C(F)(F)F)ccc1NC(=O)c1c(F)cccc1C(=O)NC(C)C [compound 906] | D (79-50) | A (100) | A (100)
26 | Cc1cc(SC(F)(F)C(F)(F)F)ccc1NC(=O)c1cccc(Cl)c1C(=O)NC(C)C [compound 907] | A (100) | A (100) | A (100)
27 | Cc1cc(SC(F)(F)C(F)(F)F)ccc1NC(=O)c1c(Cl)cccc1C(=O)NC(C)C [compound 908] | D (79-50) | A (100) | A (100)
28 | Cc1cc(SC(F)(F)C(F)(F)F)ccc1NC(=O)c1cccc(I)c1C(=O)NC(C)C [compound 909] | A (100) | A (100) | A (100)
29 | CC(C)NC(=O)c1c(Cl)cccc1C(=O)Nc1ccc(C=C(Cl)Cl)cc1 [compound 915] | A (100) | A (100) | A (100)
30 | CC(C)NC(=O)c1c(I)cccc1C(=O)Nc1ccc(C=C(Cl)C(F)(F)F)cc1 [compound 917] | A (100) | A (100) | A (100)
31 | Cc1cc(Cl)ccc1NC(=O)c1ccccc1C(=O)NC(C)(C)C [compound 927] | A (100) | A (100) | A (100)
32 | CC(C)(C)NC(=O)c1ccccc1C(=O)Nc1ccc(OC(F)(F)F)cc1 [compound 929] | A (100) | A (100) | A (100)
33 | Cc1cc(OC(F)(F)F)ccc1NC(=O)c1ccccc1C(=O)NC(C)(C)C [compound 930] | A (100) | A (100) | A (100)
34 | Cc1cc(C(F)(F)C(F)(F)F)ccc1NC(=O)c1ccccc1C(=O)NC(C)(C)C [compound 931] | A (100) | A (100) | A (100)
35 | Cc1cc(C(F)(F)C(F)(F)F)ccc1NC(=O)c1cccc(Cl)c1C(=O)NC(C)(C)C [compound 932] | A (100) | A (100) | A (100)
